For experiment [1], the system named is HL-60 leukemic cells. Briefly: Nitroblue Tetrazolium (NBT) reduction assay, differentiation of HL-60 leukemic cells. Format: cell-based, human. To be noted: Homo sapiens. The text has this:
In an aspect of the present disclosure, the compounds of the disclosure can be identified using a novel high-throughput screen that is biased to identify agents that have both a high potency and low toxicity in a myeloid disorder disease model, such as an animal or cell model. In some embodiments, the high-throughput screen measures the differentiation of HL-60 leukemic cells using a quantitative nitroblue tetrazolium (NBT) reduction assay. Screening HL-60 cells, human promyelocytic cells, is advantageous as they have been used extensively as a cell line to study myeloid differentiation. Though promyelocytic cells, HL-60 cells were derived from a patient with acute myeloblastic leukemia with maturation, FAB-M2.
This technique has also been widely exploited in HL-60 cells to analyze myelomonocytic differentiation.
The NBT screen works due to changes in the oxidoreductases during differentiation that lead to increases in rates of NBT reduction. NBT is reduced due to the production of superoxide that is catalyzed by an NADPH oxidase. […] NBT is reduced by superoxide from a soluble yellow compound to insoluble blue formazan granules whose formation can be monitored spectrophotometrically at 560 nm as the unreduced dye has minimal absorbance at this wavelength. A quantitative NBT reduction assay is ideal for this type of screen as it is simple, sensitive, quantitative, requires minimal cells, has been proven to have low well to well variability, and the amount of reduced NBT is proportional to the number of cells reducing the dye as well as the amount reduced by each cell.
To discover novel AML differentiation-inducing compounds a rapid high-throughput screen (HTS) was developed and optimized. The screen was designed to be biased to identify compounds that, unlike the majority of known differentiation-inducing agents, have both high potency and low toxicity. The screen measured the differentiation of HL-60 leukemic cells using a quantitative Nitroblue Tetrazolium (NBT) reduction assay, a test that is used extensively as a measure of functional myelomonocytic differentiation. The basis for the screen is unreduced NBT exists as a yellow soluble dye. Differentiated leukemic cells are capable of producing a respiratory burst that can reduce NBT into a blue insoluble compound that can be measured spectrophotometrically. This forward chemical genetics approach allowed the discovery of novel compounds that can act on targets not previously known to be “drugable.” As only live cells can reduce NBT, the screen is biased in identifying relatively nontoxic compounds.
To perform the screen, duplicate plates of HL-60 cells were cultured at a density of 5×10^4 cells/mL with 10 μM of each compound in 96 well plates for 5 days. To determine the relative capability for a compound to induce differentiation compared to known potent inducers, each plate destined for the NBT reduction assay included wells with 0.1% DMSO (vehicle control) and 1 μM ATRA. This approach eliminates any slight day to day variation in NBT reduction values and allows the discovery of compounds with similar or greater efficacy to ATRA. Differentiation was determined in the 96 well plates by incubating the cells with 1 mg/mL of NBT and 200 ng/mL of PMA as the stimulant for the respiratory burst for 35 minutes at 37° C. The reaction was then stopped with HCl and the formazan solubilized with DMSO. Finally, the reaction mixture was read spectrophotometrically at 560 nm in a plate reader.
The securinine and norsecurinine analogues were tested and evaluated on their abilities to affect differentiation and growth of HL-60 cells (Table 1).

Experiment [2] has as its system HL-60 cells. Briefly: Growth of HL-60 cells (IC50). To be noted: Homo sapiens, HL-60, HL-60 cells; value bracketed between tested concentrations; read-out: HL-60, IC50. Format: cell-based, human.
Experiment [3] has as its system MOLT3. Briefly: Growth inhibition of MOLT3 cells. The following applies: Homo sapiens. Format: cell-based. On the procedure:
(§1) In certain embodiments, securinine and norsecurinine analogues were administered to cancerous cells, such as acute myeloblastic leukemia cells (e.g., MOLT3 and OCI-AML3) and growth inhibition was analyzed. The analogues were effective in inhibiting myeloid growth in addition to promoting differentiation, and provide for reduced proliferation of acute myeloblastic leukemia cells (Table 2).

Experiment [4] concerns OCI-AML3. Briefly: Growth inhibition of OCI-AML3 cells. It counts as cell-based. The following applies: Homo sapiens. On the procedure: as §1
Where [5] appears, read: HL-60 cells, value bracketed between tested concentrations, read-out: HL-60, Dif50.
[6] abbreviates: MOLT-3, MOLT3 cells, read-out: MOLT3 IC50.
The mark [7] stands for this setting: OCI-AML-3, OCI-AML3 cells, read-out: OCI-AML3 IC50.

Where two headings read alike, the source gives them in different places.

As a reminder, the IC50 is the concentration that gives 50% inhibition.

Regarding `COC(OC)[C@H]1CC[C@H]2N1[C@@H]1C=CC3=CC(=O)O[C@@]32C1` [Compound 2], the EC50 in experiment [1] (HL-60, read-out: HL-60, Dif50) fell in the range of 3250 to 5000 nM.
For the compound `C[N+]12CCCC[C@@H]1[C@]13C[C@H]2C=CC1=CC(=O)O3` (stereo partly drawn) [Compound 8], the EC50 in experiment [1] (setting [5]) was > 30000 nM.
Consider `O=C1C=C2C(I)=C[C@@H]3C[C@@]2(O1)[C@H]1CCCCN31` [Compound 14], for which the EC50 in experiment [1] (HL-60, read-out: HL-60, Dif50) is 500 to 750 nM.
Regarding `O=C1C=C2C(C#Cc3ccccc3)=C[C@@H]3C[C@@]2(O1)[C@H]1CCCCN31` [Compound 17], the half-maximal inhibitory concentration (IC50) is 70 to 156 nM in experiment [2], 70 nM in experiment [3] (setting [6]) and 80 nM in experiment [4] (setting [7]).
For the compound `CN(C)CC#CC1=C[C@@H]2C[C@@]3(OC(=O)C=C13)[C@H]1CCCCN21` [Compound 18], the IC50 in experiment [2] is 70 to 156 nM; in experiment [3] (setting [6]), 70 nM; in experiment [4] (setting [7]), 90 nM.
With `CCOC#CC1=C[C@@H]2C[C@@]3(OC(=O)C=C13)[C@H]1CCCCN21` [Compound 22], the results for the concentration for half-maximal inhibition (IC50) in experiment [2], in experiment [3] (setting [6]) and in experiment [4] (setting [7]) were 310 to 625 nM, 196 nM and 220 nM, respectively.
Turning to `N#CCCCC#CC1=C[C@@H]2C[C@@]3(OC(=O)C=C13)[C@H]1CCCCN21` [Compound 26], the values for the IC50 in experiment [3] (setting [6]) and in experiment [4] (setting [7]) were 160 nM and 195 nM, respectively.
For `C=C(C)CC#CC1=C[C@@H]2C[C@@]3(OC(=O)C=C13)[C@H]1CCCCN21` [Compound 28], the IC50 in experiment [2] was 156 to 310 nM; in experiment [3] (setting [6]), 165 nM; in experiment [4] (setting [7]) it was 200 nM.
In the same order, the values of `COc1ccc(C#CC2=C[C@@H]3C[C@@]4(OC(=O)C=C24)[C@H]2CCCCN32)cc1` [Compound 29] are 39 to 78 nM, 60 nM and 80 nM.
With `CCN(CC)CC#CC1=C[C@@H]2C[C@@]3(OC(=O)C=C13)[C@H]1CCCCN21` [Compound 35], the IC50 in experiment [3] (setting [6]) was 130 nM; in experiment [4] (setting [7]), 110 nM.
Turning to `CCCN(CC#CC1=C[C@@H]2C[C@@]3(OC(=O)C=C13)[C@H]1CCCCN21)CCC` [Compound 39], the results for the 50% inhibitory concentration (IC50) in experiment [3] (setting [6]) and in experiment [4] (setting [7]) were 80 nM and 70 nM, respectively.
`COc1ccc2cc(C#CC3=C[C@@H]4C[C@@]5(OC(=O)C=C35)[C@H]3CCCCN43)ccc2c1` [Compound 40]: the 50% inhibitory concentration (IC50) in experiment [3] (setting [6]) stood at 90 nM; in experiment [4] (setting [7]) it was 105 nM.
In the case of `O=C1C=C2C(C#Cc3cc4ccccc4c4ccccc34)=C[C@@H]3C[C@@]2(O1)[C@H]1CCCCN31` [Compound 41], the concentration for half-maximal inhibition (IC50) in experiment [3] (MOLT-3, read-out: MOLT3 IC50 (nM)) was found to be 150 nM; in experiment [4] (OCI-AML-3, read-out: OCI-AML3 IC50 (nM)), 180 nM.
With `Nc1ccc(C#CC2=C[C@@H]3C[C@@]4(OC(=O)C=C24)[C@H]2CCCCN32)cc1` [Compound 53], the EC50 in experiment [1] (setting [5]) lay in the range of 156 to 310 nM.
On to `O=C1C=C2CC(SC34CC5CC(CC(C5)C3)C4)[C@@H]3C[C@@]2(O1)[C@H]1CCCCN31` (stereo partly drawn) [Compound 66], for which the EC50 in experiment [1] (setting [5]) is > 30000 nM.
On the same count and under the same terms, then `O=C1C=C2CC(SCC(F)(F)F)[C@@H]3C[C@@]2(O1)[C@H]1CCCCN31` (stereo partly drawn) [Compound 67], with 20000 to 30000 nM.
As for `O=C1C=C2CC(N3CCC(F)(F)C3)[C@@H]3C[C@@]2(O1)[C@H]1CCCCN31` (stereo partly drawn) [Compound 68], in experiment [1] (setting [5]), the EC50 is > 30000 nM.
On to `O=C1C=C2CC(SCc3cccs3)[C@@H]3C[C@@]2(O1)[C@H]1CCCCN31` (stereo partly drawn) [Compound 69], for which the EC50 in experiment [1] (setting [5]) lay in the range of 20000 to 30000 nM.
In the case of `O=C1C=C2CC(SCC3CCCCCC3)[C@@H]3C[C@@]2(O1)[C@H]1CCCCN31` (stereo partly drawn) [Compound 70], the EC50 in experiment [1] (HL-60, read-out: HL-60, Dif50) is 10000 to 15000 nM.
Same read-out and setting: the value for `CCCCCCCSC1CC2=CC(=O)O[C@@]23C[C@@H]1N1CCCC[C@@H]13` (stereo partly drawn) [Compound 71] was 20000 to 30000 nM.
Consider `CCCCSC1CC2=CC(=O)O[C@@]23C[C@@H]1N1CCCC[C@@H]13` (stereo partly drawn) [Compound 72], for which, in experiment [1] (setting [5]), the EC50 lay within 20000 to 30000 nM.
As for `CCN(CC)CCSC1CC2=CC(=O)O[C@@]23C[C@@H]1N1CCCC[C@@H]13` (stereo partly drawn) [Compound 73], the EC50 in experiment [1] (setting [5]) was 10000 to 15000 nM.
Still for that read-out and setting: then `CCCSC1CC2=CC(=O)O[C@@]23C[C@@H]1N1CCCC[C@@H]13` (stereo partly drawn) [Compound 74], with 15000 to 20000 nM.
Same read-out and setting: the value for `CC(C)SC1CC2=CC(=O)O[C@@]23C[C@@H]1N1CCCC[C@@H]13` (stereo partly drawn) [Compound 75] was 15000 to 20000 nM.
